≈ marks a conversion by molar mass, not a printed value.

As usually defined, the MIC is the smallest concentration in the dilution series that meets the test's criterion for growth inhibition.

Assay [1] deals with Klebsiella pneumoniae #573. The experiment in a line: Mouse septicemia (systemic infection), PD50. It counts as in vivo. The following applies: Kpn #573; CD-1 mice, IP inoculum, 2 SC doses at 1 and 6 hrs, 7 day survival. The method, then:
In vivo efficacy of (I) was evaluated against strains of MRSA, and ceftazidime-resistant Pa and Klebsiella pneumonia (Kpn) in mouse septicemia, thigh and lung infections. Septicemia: CD-1 mice received lethal bacterial inocula IP, followed by 2 doses of antibiotics SC at 1 and 6 hrs post-inoculation. Dose calculated to protect 50% of the mice (PD50) was derived based on probit analysis of percentage survival. Thigh and lung infections: Thighs or lungs of neutropenic mice were inoculated with MRSA or Pa. Two treatment doses were given SC at 1 and 6 hrs post-inoculation. Tissues were harvested at ˜24 hrs post-inoculation and bacterial burdens quantified.
II. Methods • A. Animals: Six week-old, specific pathogen free, female CD-1 mice purchased from Charles River Laboratories (Wilmington, Mass.) were used for all studies after acclimation in Cubist animal facility. […] MIC was determined in MHB by standard CLSI microdilution. […] The survival of animals was recorded daily for 7 days. The antibiotic dose calculated to protect 50% of the mice (PD50) was derived based on probit analysis of percentage survival. • E. Mouse Thigh and Lung Infections: Mice were rendered neutropenic by two IP injections of cyclophosphamide 4 days (150 mg/kg) and 1 day (100 mg/kg) before bacterial inoculation. […] Tissue bacterial burdens were quantified by serial dilution and spiral plating of homogenates.

For the next assay, the system named is Pa #44 (ATCC27853). The assay is described as follows: MIC in MHB by standard CLSI microdilution (Example 4). It counts as cell-based. The following applies: Pseudomonas aeruginosa. An excerpt: (§1) II. Methods • A. Animals: Six week-old, specific pathogen free, female CD-1 mice purchased from Charles River Laboratories (Wilmington, Mass.) were used for all studies after acclimation in Cubist animal facility. All animal procedures were approved by the Cubist Institutional Animal Care and Use Committee. • B. Bacteria and In Vitro Susceptibility Testing: MRSA #712, Pseudomonas aeruginosa #2245 and #2545, and Klebsiella pneumoniae #573 are clinical isolates; Pseudomonas aeruginosa #44 is an ATCC strain (ATCC#27853). MIC was determined in MHB by standard CLSI microdilution. Comparator Antibiotics Used in Animal Studies: Vancomycin hydrochloride USP was purchased from Hospira (Lake Forest, Ill.); ceftazidime hydrate from Sigma; Primaxin (imipenem and cilastatin) from Merck; ceftaroline was synthesized at a CRO. • D. Mouse Septicemia: Mice received lethal inocula of bacteria in 6% hog gastric mucin intraperitoneally (IP), followed by two treatment doses of antibiotics via subcutaneous (SC) administration at 1 and 6 hrs post-inoculation. The survival of animals was recorded daily for 7 days. The antibiotic dose calculated to protect 50% of the mice (PD50) was derived based on probit analysis of percentage survival. • E. Mouse Thigh and Lung Infections: Mice were rendered neutropenic by two IP injections of cyclophosphamide 4 days (150 mg/kg) and 1 day (100 mg/kg) before bacterial inoculation. Thigh or lung infection was induced by an intramuscular injection of 0.2 mL or intranasal inoculation of 0.1 mL inoculum preparation from an overnight bacterial culture into left thigh or nares. Tissues from one group of mice receiving no treatment (No Rx) were harvested at 1 hr for determination of baseline of bacterial burden. The remaining mice received two treatment doses of vehicles or antibiotics given SC at 1 and 6 hrs post-inoculation. Tissues from the treated mice were harvested at ˜24 hrs post-inoculation. Tissue bacterial burdens were quantified by serial dilution and spiral plating of homogenates.
(In general: Dilution methods test growth across graded concentrations, often in twofold steps.)

The subject of the next assay is Kpn #573. The description is as above. It counts as cell-based. The following applies: Klebsiella pneumoniae; Kpn #573; read-out: MIC.
Excerpt: as §1

For a further assay, the system named is Pseudomonas aeruginosa. The assay is described as follows: MIC measured by the method of Example 3. Format: cell-based. The following applies: strain not named, read-out: MIC against Pseudomonas aeruginosa. As for the experimental part:
(§2) To prepare for MIC testing, individual colonies were isolated by streaking frozen glycerol material containing Staphylococcus or Pseudomonas spp. onto rich, non-selective, tryptic soy agar containing 5% sheep's blood (TSAB), and incubated at 37° C. for 18-24 hrs.
(§3) On the day of testing, primary cultures were started by scraping off 5-10 colonies from the TSAB plates. The material was suspended in ˜5 mL of cation adjusted Mueller Hinton Broth (CAMHB) in 14 mL culture tubes and incubated at 37° C. with aeration (200 rpm) for ˜2 hrs until the OD600 was ≧0.1.
(§4) Inoculum cultures were prepared by standardizing the primary cultures to OD600=0.1 and then adding 20 μL of the adjusted primary culture per 1 mL CAMHB for Pseudomonas and CAMHB plus 4% NaCl for MRSA so that the final inoculum density was ˜10^5 colony forming units per milliliter. Diluted inoculum cultures were used to inoculate 50 μL per well in 96 well broth microdilution assay plates. […]
(§5) Plates were incubated for 18-20 hours at 37° C. with aeration (200 rpm). Following incubation, growth was confirmed visually placing plates over a viewing apparatus (stand with a mirror underneath) and then OD600 was measured using a SpectraMax 340PC384 plate reader (Molecular Devices, Sunnyvale, Calif.). Growth was defined as turbidity that could be detected with the naked eye or achieving minimum OD600 of 0.1. […]

Assay [2] deals with methicillin-resistant Staphylococcus aureus (MRSA). The experiment in a line: MIC measured by the method of Example 3. Format: cell-based. The following applies: strain not named, read-out: MIC against methicillin-resistant Staphylococcus aureus (MRSA). As for the experimental part: as §2, §3, §4, §5

In the case of `CO/N=C(\C(=O)N[C@@H]1C(=O)N2C(C(=O)[O-])=C(C[n+]3ccc(N)c(NC(=O)Nc4ccc(CCNC(=N)N)cc4)c3)CS[C@H]12)c1nc(N)sc1Cl` [(I)], the “Septicemia PD50 (± SE)” value in assay [1] is below 1.3 mg/kg. Also, the MIC in the assay with Pa #44 (ATCC27853) was 1 µg/mL (≈ 1.35 µM); in the assay with Kpn #573, 1 µg/mL (≈ 1.35 µM); with Pseudomonas aeruginosa it was 1 to 2 µg/mL (≈ 1.35 to 2.69 µM); in assay [2], 1 to 2 µg/mL (≈ 1.35 to 2.69 µM).

Source of the values: patent US8809314B1, “Cephalosporin compound” (Cubist Pharmaceuticals, Inc., priority 2012, dated 2014).
